Source: patent publication US8748417B2, “Amino-pyrrolidine-azetidine diamides as monoacylglycerol lipase inhibitors” (Janssen Pharmaceutica, NV, priority 2010, dated 2014)
Values belong to the compound of their own block, whether it stands above or below them.

What was measured:
[1] = molecular target: T1, purified wild type MGL (wt-MGLL 6H-11-313) (Homo sapiens, UniProt Q99685); experiment: MGL enzyme activity assay (4MU-B cleavage), wild type MGL; type: biochemical; conditions: wild type MGL 5 nM, 4MU-B 10 μM, 37° C.; read-out: MGL wild type inh IC50
T1 construct: purified wild type MGL (wt-MGLL 6H-11-313)
T1 sequence (Q99685 1-303): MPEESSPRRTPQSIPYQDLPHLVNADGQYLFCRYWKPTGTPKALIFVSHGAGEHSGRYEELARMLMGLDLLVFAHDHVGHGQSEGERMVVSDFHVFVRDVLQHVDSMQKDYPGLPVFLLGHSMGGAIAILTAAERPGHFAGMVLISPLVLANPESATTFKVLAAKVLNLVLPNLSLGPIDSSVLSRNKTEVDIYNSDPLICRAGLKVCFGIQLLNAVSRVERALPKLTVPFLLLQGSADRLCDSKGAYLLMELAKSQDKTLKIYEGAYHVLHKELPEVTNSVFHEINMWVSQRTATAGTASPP
How it was run: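 Enzyme in 20 mM PIPES pH 7.0, 150 mM NaCl, 0.001% Tween 20 with 4MU-B at 10 μM final and MGL at 5 nM final; compounds 17 to 0.0003 μM final, enzyme added last. Fluorescence (ex 335/em 440 nm) followed at 37° C for 5 min; IC50 from fit of fractional activity versus inhibitor concentration.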

[2] = tested on: MGL (rat brain homogenate); experiment: 2-AG accumulation assay in rat brain homogenate; type: biochemical; conditions: compound 1 μM, percent of vehicle 2-AG accumulation
Protocol: After a 15-min incubation time at 37° C., CaCl2 (final concentration=10 mM) was added and then incubated for 15 min at 37° C. in a total volume of 5 mL. The reactions were stopped with 6 mL organic solvent extraction solution of 2:1 chloroform/methanol. Accumulated 2-AG in the organic phase was measured by a HPLC/MS method, according to the following equation: percent vehicle=(2-AG accumulation in the presence of compound/2-AG accumulation in vehicle)×100.

- IC50 [1]: < 5 nM
Compound: O=C(c1cc2cc(-c3ccccc3)ccc2s1)N1CC(N[C@H]2CCN(C(=O)c3nccs3)C2)C1 [Cpd 129, (3S)-N-{1-[(5-Phenyl-1-benzothiophen-2-yl)carbonyl]azetidin-3-yl}-1-(1,3-thiazol-2-ylcarbonyl)pyrrolidin-3-amine]
- Rat Brain 2AG % VehCntrl (%) @1 μM [2]: 590%

- IC50 [1]: < 5 nM
Compound: O=C(c1cscn1)N1CC[C@H](NC2CN(C(=O)c3cc4cc(-c5cccc(C(F)(F)F)c5)ccc4s3)C2)C1 [Cpd 130, (3S)-1-(1,3-Thiazol-4-ylcarbonyl)-N-[1-({5-[3-(trifluoromethyl)phenyl]-1-benzothiophen-2-yl}carbonyl)azetidin-3-yl]pyrrolidin-3-amine]
- Rat Brain 2AG % VehCntrl (%) @1 μM [2]: 747%

- IC50 [1]: < 5 nM
Compound: O=C(c1cscn1)N1CC[C@H](NC2CN(C(=O)c3cc4cc(-c5ccccc5)ccc4s3)C2)C1 [Cpd 131, (3S)-N-{1-[(5-Phenyl-1-benzothiophen-2-yl)carbonyl]azetidin-3-yl}-1-(1,3-thiazol-4-ylcarbonyl)pyrrolidin-3-amine]
- Rat Brain 2AG % VehCntrl (%) @1 μM [2]: 385%

More lines, now with the values behind:

Compound: O=C(c1ccc(Cc2cccc(C(F)(F)F)c2)cc1)N1CC(N[C@H]2CCN(C(=O)c3cscn3)C2)C1 [Cpd 127, (3S)-1-(1,3-Thiazol-4-ylcarbonyl)-N-[1-({4-[3-(trifluoromethyl)benzyl]phenyl}carbonyl)azetidin-3-yl]pyrrolidin-3-amine]
- IC50 [1]: < 5 nM
- Rat Brain 2AG % VehCntrl (%) @1 μM [2]: 618%

Compound: O=C(c1cscn1)N1CC[C@H](NC2CN(C(=O)c3cc4ccc(-c5ccc(C(F)(F)F)cc5)cc4s3)C2)C1 [Cpd 128, (3S)-1-(1,3-Thiazol-4-ylcarbonyl)-N-[1-({6-[4-(trifluoromethyl)phenyl]-1-benzothiophen-2-yl}carbonyl)azetidin-3-yl]pyrrolidin-3-amine]
- IC50 [1]: 5 nM
- Rat Brain 2AG % VehCntrl (%) @1 μM [2]: 491%

Compound: O=C(c1cc2cc(-c3cccc(C(F)(F)F)c3)ccc2s1)N1CC(N[C@H]2CCN(C(=O)c3nccs3)C2)C1 [Cpd 132, (3S)-1-(1,3-Thiazol-2-ylcarbonyl)-N-[1-({5-[3-(trifluoromethyl)phenyl]-1-benzothiophen-2-yl}carbonyl)azetidin-3-yl]pyrrolidin-3-amine]
- IC50 [1]: < 5 nM
- Rat Brain 2AG % VehCntrl (%) @1 μM [2]: 1233%

Compound: O=C(c1cc2ccc(C(F)(F)F)cc2s1)N1CC(N[C@H]2CCN(C(=O)c3nccs3)C2)C1 [Cpd 138, (3S)-1-(1,3-Thiazol-2-ylcarbonyl)-N-(1-{[6-(trifluoromethyl)-1-benzothiophen-2-yl]carbonyl}azetidin-3-yl)pyrrolidin-3-amine]
- IC50 [1]: 16 nM
- Rat Brain 2AG % VehCntrl (%) @1 μM [2]: 340%

Compound: O=C(c1nccs1)N1CC[C@H](NC2CN(C(=O)c3sc4cc(Br)ccc4c3Cl)C2)C1 [Cpd 140, (3S)-N-{1-[(6-Bromo-3-chloro-1-benzothiophen-2-yl)carbonyl]azetidin-3-yl}-1-(1,3-thiazol-2-ylcarbonyl)pyrrolidin-3-amine]
- IC50 [1]: 12.4 nM
- Rat Brain 2AG % VehCntrl (%) @1 μM [2]: 742%

Compound: O=C(c1cscn1)N1CC[C@H](NC2CN(C(=O)c3sc4cc(Br)ccc4c3Cl)C2)C1 [Cpd 141, (3S)-N-{1-[(6-Bromo-3-chloro-1-benzothiophen-2-yl)carbonyl]azetidin-3-yl}-1-(1,3-thiazol-4-ylcarbonyl)pyrrolidin-3-amine]
- IC50 [1]: 19 nM
- Rat Brain 2AG % VehCntrl (%) @1 μM [2]: 388%

Compound: O=C(c1ccc2c(c1)c(F)cn2-c1ccc(F)cc1)N1CC(N[C@H]2CCN(C(=O)c3ccccc3)C2)C1 [Cpd 142, (3S)-N-(1-{[3-Fluoro-1-(4-fluorophenyl)-1H-indol-5-yl]carbonyl}azetidin-3-yl)-1-(phenylcarbonyl)pyrrolidin-3-amine]
- IC50 [1]: 56.5 nM
- Rat Brain 2AG % VehCntrl (%) @1 μM [2]: 247%

Compound: O=C(c1ccc2c(c1)c(F)cn2-c1ccc(F)cc1)N1CC(N[C@H]2CCN(C(=O)c3cscn3)C2)C1 [Cpd 143, (3S)-N-(1-{[3-Fluoro-1-(4-fluorophenyl)-1H-indol-5-yl]carbonyl}azetidin-3-yl)-1-(1,3-thiazol-4-ylcarbonyl)pyrrolidin-3-amine]
- IC50 [1]: 46.5 nM
- Rat Brain 2AG % VehCntrl (%) @1 μM [2]: 244%
